Measurements published in patent publication US9771602B2 (priority 2013, dated 2017).
Values joined by “and” are separate entries in the source; they are usually repeats but may differ in a detail not shown here. Equal entries are not always repeated. Structures can show the parent of a compound that is named as a salt. Where two headings read alike, the source gives them in different places.

How the values were obtained:
[1] = tested on: S. cerevisiae yeast strains PNY0860-1A, PNY827 and CEN.PK 113-7D; assay: Filter-disk growth inhibition assay with AHAS inhibitors on top agar plates; type: cell-based; details: filter disks containing 20 μg or 10 μg AHAS inhibitor; 72 hours at 30° C.
[2] = tested on: ethanologen yeast PNY 827; assay: microbe, parasite or virus in culture; type: cell-based, Saccharomyces cerevisiae; details: for Ki: read-out: KI (inhibitory constant on growth)
[3] = tested on: NYLA84 ILV2-410::loxP71/66 with pLH468 and pLH475-JEA1; type: cell-based, S. cerevisiae; details: 0 μg/ml to 50 μg/ml sulfometuron methyl; strains expressing cytosolic acetolactate synthase
[4] = tested on: mixed cultures of ethanologen S. cerevisiae PNY 827 and the butanologen yeast S. cerevisiae PNY 2129; type: cell-based
[5] = Saccharomyces cerevisiae, PNY827, read-out: IC50 on growth (inhibitor concentration with 50% μ°max)
[6] = fit to hybrid inhibition kinetics model
[7] = fit to squared inhibition kinetics

COC(=O)c1ccccc1S(=O)(=O)NC(=O)Nc1nc(C)cc(C)n1 [sulfometuron methyl]
zones of growth inhibition (inhibition of yeast growth) [1]: inhibit growth
overall observable μ°max [2]: 0.59 L/h
μmax (maximum specific growth rate) [2]: 0.04 L/h and 0.05 L/h
μ°max 1 [2]: 0.55 L/h
μ°max 2 [2]: 0.04 L/h
IC50 [2, 5]: < 0.1 mM
Ki [2, 6]: < 0.1 mM
resistance (growth scored after overnight incubation) [3]: higher resistance

O=S([O-])[O-].[Na+].[Na+] [sulfite, sodium sulfite]
OD600corr [ ] [2]: 0.081 and 0.087 and 0.088 and 0.092
OD600corr [ ] ([2]; 1 mM (F8-su-1), time 1.00 h): 0.082
OD600corr [ ] ([2]; 1 mM (F8-su-1), time 2.25 h): 0.121
OD600corr [ ] ([2]; 1 mM (F8-su-1), time 3.25 h): 0.185
OD600corr [ ] ([2]; 1 mM (F8-su-1), time 4.25 h): 0.307
OD600corr [ ] ([2]; 1 mM (F8-su-1), time 6.00 h): 1.102
OD600corr [ ] ([2]; 1 mM (F8-su-1), time 23.67 h): 11.157
μmax (maximum specific growth rate) ([2]; 1 mM inhibitor): 0.59 L/h
OD600corr [ ] ([2]; 2 mM (F9-su-2), time 1.00 h): 0.086
OD600corr [ ] ([2]; 2 mM (F9-su-2), time 2.25 h): 0.120
OD600corr [ ] ([2]; 2 mM (F9-su-2), time 3.25 h): 0.173
OD600corr [ ] ([2]; 2 mM (F9-su-2), time 4.25 h): 0.265
OD600corr [ ] ([2]; 2 mM (F9-su-2), time 6.00 h): 0.887
OD600corr [ ] ([2]; 2 mM (F9-su-2), time 23.67 h): 12.217
μmax (maximum specific growth rate) ([2]; 2 mM inhibitor): 0.54 L/h
OD600corr [ ] ([2]; 5 mM (F10-su-3), time 1.00 h): 0.090
OD600corr [ ] ([2]; 5 mM (F10-su-3), time 2.25 h): 0.116
OD600corr [ ] ([2]; 5 mM (F10-su-3), time 3.25 h): 0.153
OD600corr [ ] ([2]; 5 mM (F10-su-3), time 4.25 h): 0.208
OD600corr [ ] ([2]; 5 mM (F10-su-3), time 6.00 h): 0.392
OD600corr [ ] ([2]; 5 mM (F10-su-3), time 9.58 h): 2.572
OD600corr [ ] ([2]; 5 mM (F10-su-3), time 23.67 h): 11.717
μmax (maximum specific growth rate) ([2]; 5 mM inhibitor): 0.33 L/h
OD600corr [ ] ([2]; 10 mM (F11-su-4), time 1.00 h): 0.085
OD600corr [ ] ([2]; 10 mM (F11-su-4), time 2.25 h): 0.111
OD600corr [ ] ([2]; 10 mM (F11-su-4), time 3.25 h): 0.140
OD600corr [ ] ([2]; 10 mM (F11-su-4), time 4.25 h): 0.175
OD600corr [ ] ([2]; 10 mM (F11-su-4), time 6.00 h): 0.268
OD600corr [ ] ([2]; 10 mM (F11-su-4), time 9.58 h): 1.102
OD600corr [ ] ([2]; 10 mM (F11-su-4), time 23.67 h): 11.437
μmax (maximum specific growth rate) ([2]; 10 mM inhibitor): 0.23 L/h
OD600corr [ ] ([2]; 20 mM (F3-su-1), time 1.50 h): 0.099
OD600corr [ ] ([2]; 20 mM (F3-su-1), time 2.67 h): 0.115
OD600corr [ ] ([2]; 20 mM (F3-su-1), time 4.00 h): 0.150
OD600corr [ ] ([2]; 20 mM (F3-su-1), time 5.33 h): 0.182
OD600corr [ ] ([2]; 20 mM (F3-su-1), time 6.75 h): 0.226
OD600corr [ ] ([2]; 20 mM (F3-su-1), time 9.42 h): 0.396
OD600corr [ ] ([2]; 20 mM (F3-su-1), time 23.25 h): 9.697
μmax (maximum specific growth rate) ([2]; 20 mM inhibitor): 0.18 L/h
OD600corr [ ] ([2]; 50 mM (F4-su-2), time 1.50 h): 0.095
OD600corr [ ] ([2]; 50 mM (F4-su-2), time 2.67 h): 0.116
OD600corr [ ] ([2]; 50 mM (F4-su-2), time 4.00 h): 0.135
OD600corr [ ] ([2]; 50 mM (F4-su-2), time 5.33 h): 0.161
OD600corr [ ] ([2]; 50 mM (F4-su-2), time 6.75 h): 0.192
OD600corr [ ] ([2]; 50 mM (F4-su-2), time 9.42 h): 0.295
OD600corr [ ] ([2]; 50 mM (F4-su-2), time 23.25 h): 10.717
μmax (maximum specific growth rate) ([2]; 50 mM inhibitor): 0.14 L/h
μ°max 1 [2, 6]: 0.46 L/h
μ°max 2 [2, 6]: 0.15 L/h
Ki [2, 6]: 4.4 mM
overall observable μ°max ([2]; predicted by hybrid inhibition kinetics model): 0.61 L/h
IC50 ([2]; read-out: IC50 on growth (inhibitor concentration with 50% μ°max), derived from inhibition kinetics and fitted parameters): 6.2 mM

O=CC(=O)O [glyoxylic acid, glyoxylic acid sodium salt monohydrate]
μ°max (fitted maximum specific growth rate without inhibitor) [2]: 0.60 L/h
μmax (maximum specific growth rate) ([2]; sodium salt monohydrate): 0.59 L/h and 0.55 L/h

Cc1cn[nH]c1.Cl [4-methylpyrazole hydrochloride]
μ°max (fitted maximum specific growth rate without inhibitor) [2]: 0.58 L/h
Ki [2, 7]: 41 mM
inhibitor-based mumax (corrected for effect of DMSO) ([2]; hydrochloride): 0.48 L/h and 0.38 L/h
observed μmax ([2]; hydrochloride): 0.48 L/h and 0.24 L/h

COc1cc(OC)nc(NC(=O)NS(=O)(=O)c2ncccc2C(=O)N(C)C)n1 [Accent, nicosulfuron methyl]
zones of growth inhibition (inhibition of yeast growth) [1]: did not inhibit

C=O [formaldehyde]
μ°max (fitted maximum specific growth rate without inhibitor) [2]: 0.59 L/h
IC50 [2, 5]: 0.9 mM

c1cn[nH]c1 [pyrazole]
overall observable μ°max [2]: 0.60 L/h
μ°max 1 [2]: 0.52 L/h
μ°max 2 [2]: 0.08 L/h
IC50 [2, 5]: 3.3 mM
Ki [2, 6]: 2.8 mM
DHIV + DHMB [4]: 0.0 mM
butanol-to-ethanol ratio compared with no inhibitor ([4]; 3 mM and 30 mM, inoculum ratios 1:1 and 1:11, EPT=8 h): dramatically increased
butanol:ethanol ratio compared with no inhibitor ([4]; 30 mM, both inoculum ratios, EPT=48 h): significantly increased

CCOC(=O)c1ccccc1S(=O)(=O)NC(=O)Nc1nc(Cl)cc(OC)n1 [Classic, chlorimuron ethyl]
zones of growth inhibition (inhibition of yeast growth) [1]: inhibit growth

COC(=O)c1ccccc1S(=O)(=O)NC(=O)Nc1nc(C)nc(OC)n1 [Ally, metsulfuron methyl]
zones of growth inhibition (inhibition of yeast growth) [1]: inhibit growth

COC(=O)c1sccc1S(=O)(=O)NC(=O)Nc1nc(C)nc(OC)n1 [Harmony, thifensulfuron methyl]
zones of growth inhibition (inhibition of yeast growth) [1]: did not inhibit

C[S+](C)[O-] [DMSO]
μmax (maximum specific growth rate) [2]: 0.56 L/h
Ki [2]: ~16 mM

O=C/C=C/c1ccccc1 [cinnamaldehyde, trans-cinnamaldehyde]
inhibitor-based mumax (corrected for effect of DMSO) [2]: 0.64 L/h and 0.63 L/h and 0.55 L/h
observed μmax [2]: 0.64 L/h and 0.63 L/h and 0.55 L/h
μ°max (fitted maximum specific growth rate without inhibitor) [2]: 0.62 L/h
IC50 [2, 5]: 0.25 mM
Ki [2, 7]: 0.25 mM
cell growth ([2]; non-DMSO experiments: 200 mM, 100 mM, 50 mM, 25 mM, 10 mM, 1 mM): in none of the non-DMSO experiments any cell growth was observed
DHIV + DHMB [4]: 0.0 mM
ratio of butanol vs. ethanol produced compared with no addition ([4]; 250 μM, inoculum ratios 1:1 and 1:11, EPT=8 h and EPT=48 h): lower
growth of mixed cultures ([4]; 25 mM, both mixed cultures (1:1 and 1:11), EPT=8 h and EPT=48 h): No growth

O=C(O)c1cn[nH]c1 [4-pyrazolecarboxylic acid]
inhibitor-based mumax (corrected for effect of DMSO) [2]: 0.59 L/h and 0.50 L/h
μ°max (fitted maximum specific growth rate without inhibitor) [2]: 0.60 L/h
Ki [2, 7]: 100 mM
